Reference: patent publication US11033539B2, “Compounds of formulas (VII), (VIII), (IX), (XI), (XII), (XIII), and (XIV) as muscarinic receptor 4(M4) antagonists for treating neurological diseases” (Neurocrine Biosciences, Inc., priority 2015, dated 2021)

Molecular target: human M4 receptor (Homo sapiens (Human), UniProt P08173)
Test: Radioligand (tritiated N-methylscopolamine) binding assay, M4
Settings: Ki against the M4 receptor; membranes from CHO cells expressing human M4; tritiated N-methylscopolamine 1.5 nM; read-out: Ki
Summary of the method: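 Membranes came from recombinant CHO cells expressing human muscarinic subtypes and were incubated with compound and [3H]NMS (1.5 nM) in HEPES/NaCl/MgCl2/EDTA buffer, pH 7.4, at 37° C for 90 min. Twelve-point dose-response (printed 10–[…]). Filter-bound radioactivity was counted and Ki values derived.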

Chain of human M4 receptor (P08173 whole entry): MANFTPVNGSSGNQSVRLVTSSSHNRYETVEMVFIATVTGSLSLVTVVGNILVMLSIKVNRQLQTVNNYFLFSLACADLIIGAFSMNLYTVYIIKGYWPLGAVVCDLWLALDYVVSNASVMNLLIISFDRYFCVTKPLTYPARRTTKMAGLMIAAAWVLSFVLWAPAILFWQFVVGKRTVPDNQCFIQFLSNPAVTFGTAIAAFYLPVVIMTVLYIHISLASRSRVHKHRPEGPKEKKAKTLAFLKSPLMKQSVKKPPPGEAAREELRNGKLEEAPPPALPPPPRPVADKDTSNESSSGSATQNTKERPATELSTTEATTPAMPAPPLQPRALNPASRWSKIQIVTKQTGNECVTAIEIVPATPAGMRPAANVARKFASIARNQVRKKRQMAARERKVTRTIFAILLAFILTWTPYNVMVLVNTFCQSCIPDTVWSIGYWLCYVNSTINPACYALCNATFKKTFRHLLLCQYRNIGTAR

## CN(C(=O)c1ccc(Cl)c(-c2nc3ccccc3cc2C#N)c1)[C@@H]1CCN(C2CCCCC2)C1 [9-18, 4-chloro-3-(3-cyanoquinolin-2-yl)-N-[(3R)-1-cyclohexylpyrrolidin-3-yl]-N-methylbenzamide]
  Ki: 100 to 1000 nM

## O=C(NCCN1CCC(O)(Cc2ccccc2)CC1)c1ccn2cc(-c3ccc(OC(F)(F)F)cc3)nc2c1 [9-19, N-[2-(4-benzyl-4-hydroxypiperidin-1-yl)ethyl]-2-[4-(trifluoromethoxy)phenyl]imidazo[1,2-a]pyridine-7-carboxamide]
  Ki: 100 to 1000 nM

## Cc1cc(Cl)c(-c2cc(C(=O)NCC[C@@H]3CCN(Cc4ccccc4)C3)ccc2Cl)cn1 [9-20, N-{2-[(3R)-1-benzylpyrrolidin-3-yl]ethyl}-4-chloro-3-(4-chloro-6-methylpyridin-3-yl)benzamide]
  Ki: 100 to 1000 nM

## O=C(C1CCN(c2ncc(C(F)(F)F)cc2Cl)CC1)N1CCN(C2CCN(Cc3ccccc3)CC2)CC1 [9-21, 1-(1-benzylpiperidin-4-yl)-4-{1-[3-chloro-5-(trifluoromethyl)pyridin-2-yl]piperidine-4-carbonyl}piperazine]
  Ki: 10 to 100 nM

## CN(CCNC(=O)C1CCN(c2cccc(OC(F)(F)F)c2)CC1)[C@@H]1CCN(Cc2ccccc2)C1 [9-22, N-(2-{[(3R)-1-benzylpyrrolidin-3-yl](methyl)amino}ethyl)-1-[3-(trifluoromethoxy)phenyl]piperidine-4-carboxamide]
  Ki: 10 to 100 nM

## CN(C(=O)C1CCN(c2ccc(OC(F)(F)F)cc2)CC1)C1CCN(C2CCN(Cc3ccccc3)CC2)C1 (stereo not shown) [9-23, N-[1-(1-benzylpiperidin-4-yl)pyrrolidin-3-yl]-N-methyl-1-[4-(trifluoromethoxy)phenyl]piperidine-4-carboxamide]
  Ki: 10 to 100 nM

## N#Cc1cc(N2CCC(C(=O)NCCC3(CO)CCN(Cc4ccccc4)CC3)CC2)ccc1F [9-24, N-{2-[1-benzyl-4-(hydroxymethyl)piperidin-4-yl]ethyl}-1-(3-cyano-4-fluorophenyl)piperidine-4-carboxamide]
  Ki: 10 to 100 nM

## O=C(NCCC1CCN(Cc2ccccc2)CC1)c1ccn2cc(-c3ccc(OC(F)(F)F)cc3)nc2c1 [9-25, N-[2-(1-benzylpiperidin-4-yl)ethyl]-2-[4-(trifluoromethoxy)phenyl]imidazo[1,2-a]pyridine-7-carboxamide]
  Ki: 10 to 100 nM

## CN(CCNC(=O)C1CCN(c2ccc(OC(F)(F)F)cc2)CC1)[C@@H]1CCN(Cc2ccccc2)C1 [9-26, N-(2-{[(3R)-1-benzylpyrrolidin-3-yl](methyl)amino}ethyl)-1-[4-(trifluoromethoxy)phenyl]piperidine-4-carboxamide]
  Ki: 10 to 100 nM

## O=C(NCCC1CCN(Cc2ccccc2)CC1O)C1CCN(c2ccc(OC(F)(F)F)cc2)CC1 (stereo not shown) [9-27, N-[2-(1-benzyl-3-hydroxypiperidin-4-yl)ethyl]-1-[4-(trifluoromethoxy)phenyl]piperidine-4-carboxamide]
  Ki: 10 to 100 nM

## O=C(NCCN[C@@H]1CCN(Cc2ccccc2)C1)C1CCN(c2ccc(OC(F)(F)F)c(F)c2)CC1 [9-28, N-(2-{[(3R)-1-benzylpyrrolidin-3-yl]amino}ethyl)-1-[3-fluoro-4-(trifluoromethoxy)phenyl]piperidine-4-carboxamide]
  Ki: 10 to 100 nM

## N#Cc1ccc(N2CCC(C(=O)NCCC3CCN(Cc4ccccc4)CC3)CC2)cc1 [9-29, N-[2-(1-benzylpiperidin-4-yl)ethyl]-1-(4-cyanophenyl)piperidine-4-carboxamide]
  Ki: 10 to 100 nM

## N#Cc1ccc(-c2ccc(C(=O)NCCC3CCN(Cc4ccccc4)CC3)cc2)cc1 [9-30, N-[2-(1-benzylpiperidin-4-yl)ethyl]-4-(4-cyanophenyl)benzamide]
  Ki: 10 to 100 nM

## CN(CCNC(=O)C1CCN(c2cccc(OC(F)(F)F)c2)CC1)[C@H]1CCN(Cc2ccccc2)C1 [9-31, N-(2-{[(3S)-1-benzylpyrrolidin-3-yl](methyl)amino}ethyl)-1-[3-(trifluoromethoxy)phenyl]piperidine-4-carboxamide]
  Ki: 10 to 100 nM

## Cc1nc(-c2ccc(C(F)(F)F)cc2)sc1C(=O)NCCC1CCN(Cc2ccccc2)CC1 [9-32, N-[2-(1-benzylpiperidin-4-yl)ethyl]-4-methyl-2-[4-(trifluoromethyl)phenyl]-1,3-thiazole-5-carboxamide]
  Ki: 10 to 100 nM

## CN(C1CCN(C(=O)C2CCN(c3ccc(OC(F)(F)F)cc3)CC2)CC1)[C@@H]1CCN(Cc2ccccc2)C1 [9-33, N-[(3R)-1-benzylpyrrolidin-3-yl]-N-methyl-1-{1-[4-(trifluoromethoxy)phenyl]piperidine-4-carbonyl}piperidin-4-amine]
  Ki: 10 to 100 nM

## CN(CCC1CCN(Cc2ccccc2)CC1)C(=O)C1CCN(c2ccc(OC(F)(F)F)cc2)CC1 [9-34, N-[2-(1-benzylpiperidin-4-yl)ethyl]-N-methyl-1-[4-(trifluoromethoxy)phenyl]piperidine-4-carboxamide]
  Ki: 100 to 1000 nM

## CN(CCNC(=O)C1CCN(c2ccc(OC(F)(F)F)c(F)c2)CC1)C1CN(Cc2ccccc2)CC1CO (stereo not shown) [9-35, N-(2-{[1-benzyl-4-(hydroxymethyl)pyrrolidin-3-yl](methyl)amino}ethyl)-1-[3-fluoro-4-(trifluoromethoxy)phenyl]piperidine-4-carboxamide]
  Ki: 100 to 1000 nM

## O=C(CCC1CCN(Cc2ccccc2)CC1)NC1CCN(c2ccc(OC(F)(F)F)cc2)CC1 [9-36, 3-(1-benzylpiperidin-4-yl)-N-{1-[4-(trifluoromethoxy)phenyl]piperidin-4-yl}propanamide]
  Ki: 100 to 1000 nM

## O=C(NCCC1CCN(Cc2ccccc2)CC1)C1CCN(c2ncc(Br)cn2)CC1 [9-37, N-[2-(1-benzylpiperidin-4-yl)ethyl]-1-(5-bromopyrimidin-2-yl)piperidine-4-carboxamide]
  Ki: 100 to 1000 nM

## CN(CCNC(=O)c1ccc(-c2ccccc2)cc1)[C@@H]1CCN(Cc2ccccc2)C1 [9-38, N-(2-{[(3R)-1-benzylpyrrolidin-3-yl](methyl)amino}ethyl)-4-phenylbenzamide]
  Ki: 100 to 1000 nM

## CN(CCNC(=O)c1ccc(-c2ccc(OC(F)(F)F)cc2)cc1)[C@@H]1CCN(Cc2ccccc2)C1 [9-39, N-(2-{[(3R)-1-benzylpyrrolidin-3-yl](methyl)amino}ethyl)-4-[4-(trifluoromethoxy)phenyl]benzamide]
  Ki: 10 to 100 nM

## Cc1ccc(-c2ccc(C(=O)NCCC3CCN(Cc4ccccc4)CC3)c(F)c2)cc1 [9-40, N-[2-(1-benzylpiperidin-4-yl)ethyl]-2-fluoro-4-(4-methylphenyl)benzamide]
  Ki: 10 to 100 nM

## O=C(NCCC1CCN(Cc2ccccc2)CC1)c1ccc(-c2ccc(F)cc2)cc1 [9-41, N-[2-(1-benzylpiperidin-4-yl)ethyl]-4-(4-fluorophenyl)benzamide]
  Ki: 10 to 100 nM

## CN(CCC1CC[N+](C)(Cc2ccccc2)CC1)C(=O)C1CCN(c2ccc(OC(F)(F)F)cc2)CC1 (stereo not shown) [9-42, 1-benzyl-1-methyl-4-[2-(N-methyl-1-{1-[4-(trifluoromethoxy)phenyl]piperidin-4-yl}formamido)ethyl]piperidin-1-ium]
  Ki: 100 to 1000 nM

## O=C(Cc1ccc(OCc2ccccc2)cc1)NCCC1CCN(Cc2ccccc2)CC1 [9-43, 2-[4-(benzyloxy)phenyl]-N-[2-(1-benzylpiperidin-4-yl)ethyl]acetamide]
  Ki: 100 to 1000 nM

## N#Cc1cc(N2CCC(C(=O)NCCC3(O)CCN(Cc4ccccc4)CC3)CC2)ccc1F [9-44, N-[2-(1-benzyl-4-hydroxypiperidin-4-yl)ethyl]-1-(3-cyano-4-fluorophenyl)piperidine-4-carboxamide]
  Ki: 10 to 100 nM

## CCCn1c(=O)c2nc(-c3ccc(C(=O)NCCC4CCN(Cc5ccccc5)CC4)cc3)[nH]c2n(CCC)c1=O [9-45, N-[2-(1-benzylpiperidin-4-yl)ethyl]-4-(2,6-dioxo-1,3-dipropyl-2,3,6,9-tetrahydro-1H-purin-8-yl)benzamide]
  Ki: 10 to 100 nM

## O=C(NCCC1(O)CCN(Cc2ccccc2)CC1)C1CCN(c2cccc(OC(F)(F)F)c2)CC1 [9-46, N-[2-(1-benzyl-4-hydroxypiperidin-4-yl)ethyl]-1-[3-(trifluoromethoxy)phenyl]piperidine-4-carboxamide]
  Ki: 10 to 100 nM

## N#Cc1ccc(N2CCC(C(=O)NCCC3CCN(Cc4ccccc4)CC3)CC2)nc1 [9-47, N-[2-(1-benzylpiperidin-4-yl)ethyl]-1-(5-cyanopyridin-2-yl)piperidine-4-carboxamide]
  Ki: 100 to 1000 nM

## O=C(c1ccn2cc(-c3ccc(OC(F)(F)F)cc3)nc2c1)N(C1CC1)C1CCN(Cc2ccccc2)CC1 [9-48, N-(1-benzylpiperidin-4-yl)-N-cyclopropyl-2-[4-(trifluoromethoxy)phenyl]imidazo[1,2-a]pyridine-7-carboxamide]
  Ki: 100 to 1000 nM

## O=C(NCC[C@H]1CCN(Cc2ccccc2)C1)C1CCN(c2ccc(OC(F)(F)F)cc2)CC1 [9-49, N-{2-[(3S)-1-benzylpyrrolidin-3-yl]ethyl}-1-[4-(trifluoromethoxy)phenyl]piperidine-4-carboxamide]
  Ki: 100 to 1000 nM

## O=C(CCC1CCN(Cc2ccccc2)CC1)NC1CCN(c2cccc(OC(F)(F)F)c2)CC1 [9-50, 3-(1-benzylpiperidin-4-yl)-N-{1-[3-(trifluoromethoxy)phenyl]piperidin-4-yl}propanamide]
  Ki: 100 to 1000 nM

## COc1ccc(-c2cc3ncc(C(=O)NCCC4CCN(Cc5ccccc5)CC4)c(C)n3n2)cc1 [9-51, N-[2-(1-benzylpiperidin-4-yl)ethyl]-2-(4-methoxyphenyl)-7-methylpyrazolo[1,5-a]pyrimidine-6-carboxamide]
  Ki: 100 to 1000 nM

## Cc1ccnc(N2CCC(C(=O)NCCC3CCN(Cc4ccccc4)CC3)CC2)c1 [9-52, N-[2-(1-benzylpiperidin-4-yl)ethyl]-1-(4-methylpyridin-2-yl)piperidine-4-carboxamide]
  Ki: 100 to 1000 nM

## O=C(c1ccc(-c2cccs2)cc1)N(C1CC1)C1CCN(Cc2ccccc2)CC1 [9-53, N-(1-benzylpiperidin-4-yl)-N-cyclopropyl-4-(thiophen-2-yl)benzamide]
  Ki: 100 to 1000 nM

## O=C(NCCN[C@@H]1CCN(Cc2ccccc2)C1)C1CCN(c2cccc(OC(F)(F)F)c2)CC1 [9-54, N-(2-{[(3R)-1-benzylpyrrolidin-3-yl]amino}ethyl)-1-[3-(trifluoromethoxy)phenyl]piperidine-4-carboxamide]
  Ki: 100 to 1000 nM
